The values that follow come from ChEMBL document CHEMBL2311379, “Design and synthesis of 2-(3-alkylaminophenyl)-6-(pyrrolidin-1-yl)quinolin-4-ones as potent antitumor agents” (Bioorg Med Chem Lett, 2013).

The nature of series [1]: Cytotoxicity against human Hep3B cells. Type of series: functional, cell-based, Hep 3B2.
The subject of series [2] is Detroit 551. Nature of the series: Cytotoxicity against human Detroit 551 cells. Type of series: cell-based.
Series [3] can be described thus: Antitumor activity against human Hep3B cells xenografted in nude mouse assessed as inhibition of tumor growth at 20 mg/kg, ip qd administered for 5 days per week for 4 consecutive weeks. Type of series: functional, Hep 3B2. The following applies: 120 h, route intraperitoneal, read-out: TGI. On the technique in general: A xenograft is tissue or cells of one species grown in another, often human tumour cells in immunodeficient mice.

A short description of series [4]: Cytotoxicity against human H460 cells. The following applies: NCI-H460. Type of series: functional, cell-based.
Series [5] concerns Mus musculus. In words: Toxicity in human Hep3B cells xenografted nude mouse assessed as mouse body weight changes at 20 mg/kg, ip qd administered for 5 days per week for 4 consecutive weeks. The settings on record: in vivo, 120 h. The arrangement: dose 20 mg/kg, route intraperitoneal. Type of series: organism-based, Hep 3B2.
The test system of series [6] is Mus musculus. In words: Toxicity in human Hep3B cells xenografted nude mouse assessed as mouse body weight changes at 10 mg/kg, ip qd administered for 5 days per week for 4 consecutive weeks. The settings on record: in vivo, 120 h. Type of series: organism-based, Hep 3B2. Also noted: dose 10 mg/kg, route intraperitoneal.
For series [7], the system named is HL-60. In words: Cytotoxicity against human HL60 cells. Type of series: functional, cell-based.
The subject of series [8] is Hep 3B2. In words: Antitumor activity against human Hep3B cells xenografted in nude mouse assessed as inhibition of tumor growth at 10 mg/kg, ip qd administered for 5 days per week for 4 consecutive weeks. Type of series: functional, organism-based. The arrangement: dose 10 mg/kg.
A short description of series [9]: Cytotoxicity against human NCI60 cells. Type of series: functional.

Calls of active or inactive are those of the source. The rule behind the calls is not given here. A value given as a limit tells only on which side of the number the result lay.

Take `CNc1cccc(-c2cc(=O)c3cc(N4CCCC4)ccc3[nH]2)c1`: the IC50 (as a rule, the midpoint of a concentration-inhibition curve) in [1] was 21 nM; in series [2], over 10000 nM; in series [4], 35 nM; in [7], 6 nM. The inhibition in vivo at 20 mg/kg in series [3] amounted to 70%. Also, the Activity entry in [5] and in series [6] was “Non-toxic” throughout. Besides, the TGI entry in series [8] is “Active”.

Regarding `CCNc1cccc(-c2cc(=O)c3cc(N4CCCC4)ccc3[nH]2)c1`, the IC50 in series [1] is 20 nM; in [2], over 10000 nM; in [4], 20 nM; in series [7], 5 nM.

Consider `CN(C)c1cccc(-c2cc(=O)c3cc(N4CCCC4)ccc3[nH]2)c1`, for which the IC50 is 15 nM in series [1], over 1000 nM in series [2], 13 nM in [4] and 5 nM in series [7].

On to `COc1cccc(-c2cc(O)c3cc(N4CCCC4)ccc3n2)c1`, for which halving of growth in series [9] (GI50) required 1.91 nM.
